# Results from patent US20080279957A1, “Immunomodulating compositions from bile” (Lorus Therapeutics Inc., priority 2000, published 2008).
# Values joined by “and” are separate entries in the source; they are usually repeats but may differ in a detail not shown here. Identical values can stand only once.
# Tests used:
# Format in all cases: cell-based
# [1] = tested on: human PBMN; experiment: TNF release by PBMN with LPS plus composition in the presence of Polymyxin
# Method: (§1) In the studies of TNF, whole blood was drawn from 5 healthy subjects into heparinized Vacutainer tubes. Peripheral blood mononuclear cells (PBMNs) were isolated by gradient centrifugation on Ficoll-Hypaque (Pharmacia). The PBMN were washed twice with phosphate buffered saline (PBS), counted and resuspended in RPMI 1640 culture medium (Gibco Labs) at a concentration of 10^6 cells/0.5 ml. These cells were cultured in 24 well, flat-bottomed tissue culture plates (Falcon, Becton, Dickinson). […] The total volume was then made up to 1 ml/well with RPMI. As control, PBS was used instead of composition. The cells were cultured for 2, 6, 24, 48 and 72 hours at 37° C. in a humidified 5% CO2 incubator. At the end of each incubation period, the cells were harvested and cell free culture fluids were obtained by centrifugation at 9000 rpm for 10 minutes. The samples were then stored at −70° C. until ELISA for cytokines was carried out (within 2 weeks).
# Polymyxin inhibits the action of endotoxin on leukocytes. […] In the absence of polymyxin, LPS induces 517 pg/ml of TNF-α, whereas in the presence of Polymyxin 11 pg/ml of TNF-α is released.
# Initially, the effect of different fractions were examined in the presence of Polymyxin. […] Batch BO213 was 369 and high. […] Therefore, whether the hyperosmolarity of the samples was inhibiting or enhancing TNF-α release was investigated as set out below.
# [2] = tested on: human PBMN; experiment: LPS-stimulated release of cytokines other than TNF by PBMN, LPS plus composition; conditions: LPS (50 ng/ml) alone
# Method: as §1
# Experiments were performed to determine whether the composition of the invention would impair LPS-stimulated release. […] The effects on the other cytokines IL-6, IL-8, IFN-gamma and GM-CSF were not as marked. However, in no instance did the compositions tested augment the effect of LPS stimulated release of cytokines.
# [3] = tested on: human peripheral blood mononuclear cells (PBMN); experiment: Survival of PBMN, trypan blue dye exclusion; conditions: Patient
# Description: At the end of this period, the number of surviving cells was estimated by trypan blue dye exclusion.
# [4] = tested on: human PBMN; experiment: Direct effect of composition on cytokine production by PBMN (IL-1α, IL-1β, IL-6, IL-8, GM-CSF, IFN-γ, IL-4; ELISA); conditions: LPS 1 μg, 24 hrs
# [5] = tested on: human PBMN; experiment: Direct TNF release from PBMN by composition in the absence of LPS (ELISA); conditions: 24 hrs; seven patient samples
# Method: as §1, with “Peripheral” for “In the studies of TNF, whole blood was drawn from 5 healthy subjects into heparinized Vacutainer tubes. Peripheral”
# The direct stimulatory effect of Batch B0203 was tested at different volumes and then at different times.
# Batch B0203 stimulated maximum TNF-release at about 100 μl (Table 16). […] Thus, the composition was able to stimulate TNF-release on its own, that is in the absence of LPS and the curves for TNF-release were similar to when the composition and LPS were combined.
# [6] = second LPS section, LPS 1 μg/well, 24 hrs
# [7] = second LPS section, LPS 1 μg/well, 48 hrs
# [8] = second LPS section, LPS 10 μg/well, 24 hrs
# [9] = second LPS section, LPS 10 μg/well, 48 hrs
substance,measurement,setting,value
Lipopolysaccharide [LPS],TNF Released Total,"[1]; Polymyxin 50.000 units/ml, composition and fractions 200 μl, LPS 50 ng/10 μl, 2 patients (Table 21)",31 ± 31 pg/mL
same,TNF Released −LPS,"[1]; Polymyxin 50,000 units/ml, LPS 50 ng/10 μl, composition 200 μl (Table 19)",0 pg/mL
same,TNF Released Total,"[1]; Polymyxin 50,000 units/ml, LPS 50 ng/10 μl, composition 200 μl, 8 patients (Table 19)",11 pg/mL and 11 ± 7 pg/mL
same,TNF Released Total,"[1]; Polymyxin 50,000 units/ml, composition and fractions 200 μl, LPS 50 ng/10 μl, 5 patients (Table 20)",40 ± 25 pg/mL
same,TNF Released −LPS,"[1]; Polymyxin, 200 μl, 2 patients (Table 21)",0 pg/mL
same,TNF Released −LPS,"[1]; Polymyxin, 200 μl, 5 patients (Table 20)",0 pg/mL
same,GM-CSF released,[2],54 ± 65
same,IFN-γ released,[2],30 ± 24
same,IL-6 released,[2],2320 ± 1081
same,IL-8 released,[2],118 ± 62 ng/mL
same,IL-16 released,[2],1314 ± 723
same,IL-1α released,[2]; six patients,129 ± 135
same,% viable,"[3]; LPS 1 μg/well, 24 hrs",43%
same,No. of Live PBMN per Well by Trypan Blue,"[3]; LPS 1 μg/well, 24 hrs",0.30 ×10^6
same,% viable,"[3]; LPS 1 μg/well, 48 hrs",40%
same,No. of Live PBMN per Well by Trypan Blue,"[3]; LPS 1 μg/well, 48 hrs",0.28 ×10^6
same,% viable,"[3]; LPS 10 μg/well, 24 hrs",36%
same,No. of Live PBMN per Well by Trypan Blue,"[3]; LPS 10 μg/well, 24 hrs",0.25 ×10^6
same,% viable,"[3]; LPS 10 μg/well, 48 hrs",18%
same,No. of Live PBMN per Well by Trypan Blue,"[3]; LPS 10 μg/well, 48 hrs",0.13 ×10^6
same,% viable,[3]; [6],46%
same,No. of Live PBMN per Well by Trypan Blue,[3]; [6],0.60 ×10^6
same,% viable,[3]; [7],41%
same,No. of Live PBMN per Well by Trypan Blue,[3]; [7],0.53 ×10^6
same,% viable,[3]; [8],12%
same,No. of Live PBMN per Well by Trypan Blue,[3]; [8],0.15 ×10^6
same,% viable,[3]; [9],12%
same,No. of Live PBMN per Well by Trypan Blue,[3]; [9],0.15 ×10^6
same,GM-CSF released,[4],54 ± 20 pg/mL
same,IFN-γ released,[4],54 ± 94 pg/mL
same,IL-1β released,[4],965 ± 99 pg/mL
same,IL-4 released,[4],<3.0 pg/mL
same,IL-6 released,[4],2016 ± 41 pg/mL
same,IL-1α released,[4]; eight patient samples,315 ± 117 pg/mL
same,TNF Released,[5],1501 ± 284 pg/mL
